Test results reported in US20240409585A1, “MACROCYCLIC IMMUNOMODULATORS” (priority 2021, published 2024).
Bridge positions count the residues as written; N and C are the ends. Square brackets hold non-standard residues; d marks the D form. Peptide text beside a SMILES is read from it. * marks the point of attachment. ξ: configuration not given here. Phe(4-COOH) = N[C@@H](Cc1ccc(C(=O)O)cc1)C(=O)O; Bip = N[C@@H](Cc1ccc(-c2ccccc2)cc1)C(=O)O; Phe(3-Me) = Cc1cccc(C[C@H](N)C(=O)O)c1; 1Nal = N[C@@H](Cc1cccc2ccccc12)C(=O)O; Val(3-OH) = CC(C)(O)[C@H](N)C(=O)O; h4Pal = N[C@@H](CCc1ccncc1)C(=O)O; hArg = N=C(N)NCCCC[C@H](N)C(=O)O; 3Pal = N[C@@H](Cc1cccnc1)C(=O)O; 4Pal = N[C@@H](Cc1ccncc1)C(=O)O; Cha = N[C@@H](CC1CCCCC1)C(=O)O; Cit = NC(=O)NCCC[C@H](N)C(=O)O; Ile(3ξ) = CCC(C)[C@H](N)C(=O)O; Thr(3ξ) = CC(O)[C@H](N)C(=O)O; Carboxymethyl = O=C(O)C*; NMeA = CN[C@@H](C)C(=O)O; Orn = NCCC[C@H](N)C(=O)O; Pra = C#CC[C@H](N)C(=O)O; Dab = NCC[C@H](N)C(=O)O; ξC = NC(CS)C(=O)O

biological target: T1, PE-labeled human PD-L1-Ig binding to Jurkat cell line over-expressing human PD-1 (Jurkat-PD-1) (Homo sapiens, UniProt Q15116); experiment: Jurkat-PD-1 Cell Binding High-Content Screening Assay (CBA): Method 1; conditions: Jurkat-hPD-1 cells, PE-labeled PD-L1-Ig 20 nM final; read-out: Jurkat HPDL1 PD1 IC50 (uM) (Method 1)
T1 construct: expressed in transfected cells; host or cells: Jurkat
T1 sequence (Q15116 25-288): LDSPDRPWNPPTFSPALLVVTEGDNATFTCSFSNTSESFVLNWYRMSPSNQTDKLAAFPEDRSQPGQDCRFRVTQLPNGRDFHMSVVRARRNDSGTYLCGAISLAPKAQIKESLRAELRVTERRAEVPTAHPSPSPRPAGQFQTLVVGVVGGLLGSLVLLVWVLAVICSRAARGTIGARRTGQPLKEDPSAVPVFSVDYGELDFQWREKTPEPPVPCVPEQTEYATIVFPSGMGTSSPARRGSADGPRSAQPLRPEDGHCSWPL

| IC50 [µM] | SMILES |
| --- | --- |
| 0.29 | CC(C)C[C@@H]1NC(=O)[C@H](CCCNC(=N)N)NC(=O)[C@@H](CC(C)C)NC(=O)[C@H](C)N(C)C(=O)[C@H](CCCNC(=N)N)NC(=O)[C@H](Cc2ccc(-c3ccccc3)cc2)NC(=O)[C@H](C(C)C)NC(=O)[C@H](Cc2c[nH]c3ccccc23)NC(=O)[C@H](CC(=O)O)NC(=O)[C@H](Cc2cccnc2)NC(=O)[C@H](Cc2ccccc2)NC(=O)CSC[C@@H](C(=O)N[C@@H](C)C(N)=O)NC(=O)[C@H]([C@@H](C)O)NC(=O)[C@H](C(C)C)NC1=O [Compound 1101] ({CH2CO}-F[3Pal]DWV[Bip]R[NMeA][dL]RLVTCA-NH2; thioether N-14) |
| 0.05 | Cc1cccc(C[C@@H]2NC(=O)[C@H](CC(=O)O)NC(=O)[C@H](Cc3ccc(OCC(=O)O)cc3)NC(=O)[C@H](CC(N)=O)NC(=O)CSC[C@@H](C(N)=O)NC(=O)[C@H](CCCN)NC(=O)[C@H](C(C)C)NC(=O)[C@H](CC3CCCCC3)NC(=O)[C@H](CCN)NC(=O)[C@@H](CC(C)C)NC(=O)[C@H](C)N(C)C(=O)[C@H](Cc3ccc(OCC(=O)O)cc3)NC(=O)[C@H](Cc3ccc(-c4ccccc4)cc3)NC(=O)[C@H](Cc3ccc(OCC(=O)O)cc3)NC2=O)c1 [Compound 1668] ({CH2CO}-NY(Carboxymethyl)D[Phe(3-Me)]Y(Carboxymethyl)[Bip]Y(Carboxymethyl)[NMeA][dL][Dab][Cha]V[Orn]C-NH2; thioether N-14) |
| 0.01 | CC(C)C[C@@H]1NC(=O)[C@H](CCN)NC(=O)[C@@H](CC(C)C)NC(=O)[C@H](C)N(C)C(=O)[C@H](C(C)C)NC(=O)[C@H](Cc2ccc(-c3ccccc3)cc2)NC(=O)[C@H](C(C)C)NC(=O)[C@H](Cc2c[nH]c3ccccc23)NC(=O)[C@H](CC(=O)O)NC(=O)[C@H](Cc2ccc(OCC(=O)O)cc2)NC(=O)[C@H](Cc2ccncc2)NC(=O)CSC[C@@H](C(=O)N[C@@H](C)C(N)=O)NC(=O)[C@H]([C@@H](C)O)NC(=O)[C@H](C(C)C)NC1=O [Compound 1565] ({CH2CO}-[4Pal]Y(Carboxymethyl)DWV[Bip]V[NMeA][dL][Dab]LVTCA-NH2; thioether N-14) |
| 0.02 | CC[C@H](C)[C@@H]1NC(=O)[C@H](Cc2ccc(-c3ccccc3)cc2)NC(=O)[C@H](C(C)C)NC(=O)[C@H](Cc2c[nH]c3ccccc23)NC(=O)[C@H](CC(=O)O)NC(=O)[C@H](Cc2ccc(C(=O)O)cc2)NC(=O)[C@H](Cc2ccncc2)NC(=O)CSC[C@@H](C(=O)N[C@@H](C)C(N)=O)NC(=O)[C@H]([C@@H](C)O)NC(=O)[C@H](C(C)C)NC(=O)[C@H](CC(C)C)NC(=O)[C@H](CCN)NC(=O)[C@@H](CC(C)C)NC(=O)[C@H](C)N(C)C1=O [Compound 1411] ({CH2CO}-[4Pal][Phe(4-COOH)]DWV[Bip]I[NMeA][dL][Dab]LVTCA-NH2; thioether N-14) |
| 0.02 | CC[C@H](C)[C@@H]1NC(=O)[C@H](Cc2ccc(-c3ccccc3)cc2)NC(=O)[C@H](C(C)(C)O)NC(=O)[C@H](Cc2cccc(C)c2)NC(=O)[C@H](CC(=O)O)NC(=O)[C@H](Cc2ccc(O)cc2)NC(=O)[C@H](CC(N)=O)NC(=O)CSC[C@@H](C(=O)N[C@@H](CCN)C(N)=O)NC(=O)[C@H]([C@@H](C)O)NC(=O)[C@H](C(C)C)NC(=O)[C@H](CC2CCCCC2)NC(=O)[C@H](CCN)NC(=O)[C@@H](CC(C)C)NC(=O)[C@H](C)N(C)C1=O [Compound 1691] ({CH2CO}-NYD[Phe(3-Me)][Val(3-OH)][Bip]I[NMeA][dL][Dab][Cha]VTC[Dab]-NH2; thioether N-14) |
| 0.01 | CC(C)C[C@@H]1NC(=O)[C@H](CCN)NC(=O)[C@@H](CC(C)C)NC(=O)[C@H](C)N(C)C(=O)[C@H](CCCNC(=N)N)NC(=O)[C@H](Cc2ccc(-c3ccccc3)cc2)NC(=O)[C@H](C(C)C)NC(=O)[C@H](Cc2c[nH]c3ccccc23)NC(=O)[C@H](CC(=O)O)NC(=O)[C@H](CCc2ccncc2)NC(=O)[C@H](CC(N)=O)NC(=O)CSC[C@@H](C(=O)N[C@@H](C)C(N)=O)NC(=O)[C@H]([C@@H](C)O)NC(=O)[C@H](C(C)C)NC1=O [Compound 1352] ({CH2CO}-N[h4Pal]DWV[Bip]R[NMeA][dL][Dab]LVTCA-NH2; thioether N-14) |
| 0.02 | CC(C)C[C@@H]1NC(=O)[C@H](CCN)NC(=O)[C@@H](CC(C)C)NC(=O)[C@H](C)N(C)C(=O)[C@H](C(C)C)NC(=O)[C@H](Cc2ccc(-c3ccccc3)cc2)NC(=O)[C@H](C(C)C)NC(=O)[C@H](Cc2c[nH]c3ccccc23)NC(=O)[C@H](CC(=O)O)NC(=O)[C@H](Cc2ccc(OCC(=O)O)cc2)NC(=O)[C@H](CC(N)=O)NC(=O)CSC[C@@H](C(=O)N[C@@H](C)C(N)=O)NC(=O)[C@H]([C@@H](C)O)NC(=O)[C@H](C(C)C)NC1=O [Compound 1377] ({CH2CO}-NY(Carboxymethyl)DWV[Bip]V[NMeA][dL][Dab]LVTCA-NH2; thioether N-14) |
| 0.02 | CCC(C)[C@@H]1NC(=O)[C@H](Cc2ccc(-c3ccccc3)cc2)NC(=O)[C@H](C(C)C)NC(=O)[C@H](Cc2c[nH]c3ccccc23)NC(=O)[C@H](CC(=O)O)NC(=O)[C@H](Cc2ccc(OCC(=O)O)cc2)NC(=O)[C@H](C(C)O)NC(=O)CSC[C@@H](C(=O)N[C@H](CC(N)=O)C(N)=O)NC(=O)[C@H](CO)NC(=O)[C@H](C(C)C)NC(=O)[C@H](CC2CCCCC2)NC(=O)[C@H](CCN)NC(=O)[C@@H](CC(C)C)NC(=O)[C@H](C)N(C)C1=O (stereo partly drawn) [Compound 2117] ({CH2CO}-[Thr(3ξ)]Y(Carboxymethyl)DWV[Bip][Ile(3ξ)][NMeA][dL][Dab][Cha]VSC[dN]-NH2; thioether N-14) |
| 0.49 | CC(C)C[C@@H]1NC(=O)[C@H](Cc2c[nH]c3ccccc23)NC(=O)[C@H](CC(=O)O)NC(=O)[C@H](Cc2ccc(O)cc2)NC(=O)[C@H](Cc2ccccc2)NC(=O)CSC[C@@H](C(=O)N[C@@H](C)C(N)=O)NC(=O)[C@H](C(C)O)NC(=O)[C@H](CCN)NC(=O)[C@H](CC(C)C)NC(=O)[C@H](CC(N)=O)NC(=O)[C@@H](C)NC(=O)[C@H](C)N(C)C(=O)[C@H](C(C)C)NC(=O)[C@H](Cc2ccc(-c3ccccc3)cc2)NC1=O (stereo partly drawn) [Compound 1534] ({CH2CO}-FYDWL[Bip]V[NMeA][dA]NL[Dab][Thr(3ξ)]CA-NH2; thioether N-14) |
| 0.13 | CC(C)C[C@@H]1NC(=O)[C@H](CCCNC(=N)N)NC(=O)[C@H](Cc2cccc3ccccc23)NC(=O)[C@H](C)N(C)C(=O)[C@H](CCCNC(=N)N)NC(=O)[C@H](Cc2ccc(-c3ccccc3)cc2)NC(=O)[C@H](C(C)C)NC(=O)[C@H](Cc2c[nH]c3ccccc23)NC(=O)[C@H](CC(=O)O)NC(=O)[C@H](Cc2ccc(O)cc2)NC(=O)[C@H](Cc2ccccc2)NC(=O)CSC[C@@H](C(=O)NCC(N)=O)NC(=O)[C@H](CO)NC(=O)[C@H](C(C)C)NC1=O [Compound 1012] ({CH2CO}-FYDWV[Bip]R[NMeA][1Nal]RLVSCG-NH2; thioether N-14) |
| 0.03 | CC(C)C[C@@H]1NC(=O)[C@H](Cc2c[nH]c3ccccc23)NC(=O)[C@H](CC(=O)O)NC(=O)[C@H](Cc2ccc(C(=O)O)cc2)NC(=O)[C@H](Cc2cccnc2)NC(=O)CSC[C@@H](C(=O)N[C@@H](C)C(N)=O)NC(=O)[C@H](CO)NC(=O)[C@H](C(C)C)NC(=O)[C@H](CC(C)C)NC(=O)[C@H](CCCCN)NC(=O)[C@@H](C)NC(=O)[C@H](C)N(C)C(=O)[C@H](CCC(=O)O)NC(=O)[C@H](Cc2ccc(-c3ccccc3)cc2)NC1=O [Compound 1761] ({CH2CO}-[3Pal][Phe(4-COOH)]DWL[Bip]E[NMeA][dA]KLVSCA-NH2; thioether N-14) |
| 0.02 | CCC(C)[C@@H]1NC(=O)[C@H](Cc2ccc(-c3ccccc3)cc2)NC(=O)[C@H](C(C)C)NC(=O)[C@H](Cc2c[nH]c3ccccc23)NC(=O)[C@H](CC(=O)O)NC(=O)[C@H](Cc2ccc(O)cc2)NC(=O)[C@H](Cc2ccncc2)NC(=O)CSCC(C(=O)N[C@@H](CCCN)C(=O)O)NC(=O)[C@H](C(C)O)NC(=O)[C@H](C(C)C)NC(=O)[C@H](CC2CCCCC2)NC(=O)[C@H](CC(N)=O)NC(=O)[C@@H](CC(C)C)NC(=O)[C@H](C)N(C)C1=O (stereo partly drawn) [Compound 2214] ({CH2CO}-[4Pal]YDWV[Bip][Ile(3ξ)][NMeA][dL]N[Cha]V[Thr(3ξ)][ξC][Orn]-OH; thioether N-14) |
| 0.02 | CC(C)C[C@@H]1NC(=O)[C@H](Cc2c[nH]c3ccccc23)NC(=O)[C@H](CC(=O)O)NC(=O)[C@H](Cc2ccc(OCC(=O)O)cc2)NC(=O)[C@H](CCc2ccncc2)NC(=O)CSC[C@@H](C(=O)N[C@@H](CC(N)=O)C(N)=O)NC(=O)[C@H](Cc2cnc[nH]2)NC(=O)[C@H](C(C)C)NC(=O)[C@H](CC(C)C)NC(=O)[C@H](CCN)NC(=O)[C@@H](CC(C)C)NC(=O)[C@H](C)N(C)C(=O)[C@H](C(C)C)NC(=O)[C@H](Cc2ccc(-c3ccccc3)cc2)NC1=O [Compound 2099] ({CH2CO}-[h4Pal]Y(Carboxymethyl)DWL[Bip]V[NMeA][dL][Dab]LVHCN-NH2; thioether N-14) |
| 0.01 | C#CC[C@H](NC(=O)CNC(=O)[C@@H]1CSCC(=O)N[C@@H](Cc2ccc(OCC(=O)O)cc2)C(=O)N[C@@H](Cc2ccc(C(=O)O)cc2)C(=O)N[C@@H](CC(=O)O)C(=O)N[C@@H](Cc2c[nH]c3ccccc23)C(=O)N[C@@H](CC(C)C)C(=O)N[C@@H](Cc2ccc(-c3ccccc3)cc2)C(=O)N[C@@H](C(C)C)C(=O)N(C)[C@@H](C)C(=O)N[C@H](CC(C)C)C(=O)N[C@@H](CCN)C(=O)N[C@@H](CC2CCCCC2)C(=O)N[C@@H](C(C)(C)O)C(=O)N[C@@H](CO)C(=O)N1)C(N)=O [Compound 1933] ({CH2CO}-Y(Carboxymethyl)[Phe(4-COOH)]DWL[Bip]V[NMeA][dL][Dab][Cha][Val(3-OH)]SCG[Pra]-NH2; thioether N-14) |

| SMILES | IC50 [µM] |
| --- | --- |
| CC(C)C[C@@H]1NC(=O)[C@H](CCN)NC(=O)[C@@H](CC(C)C)NC(=O)[C@H](C)N(C)C(=O)[C@H](CCCNC(N)=O)NC(=O)[C@H](Cc2ccc(-c3ccccc3)cc2)NC(=O)[C@H](C(C)C)NC(=O)[C@H](Cc2c[nH]c3ccccc23)NC(=O)[C@H](CC(=O)O)NC(=O)[C@H](Cc2ccc(O)cc2)NC(=O)[C@H](CCCCNC(=N)N)NC(=O)CSC[C@@H](C(=O)N[C@@H](C)C(N)=O)NC(=O)[C@H]([C@@H](C)O)NC(=O)[C@H](C(C)C)NC1=O [Compound 1349] ({CH2CO}-[hArg]YDWV[Bip][Cit][NMeA][dL][Dab]LVTCA-NH2; thioether N-14) | 0.06 |
